Results taken from publication PMC7140002, “Attenuation of Pseudomonas aeruginosa Quorum Sensing by Natural Products: Virtual Screening, Evaluation and Biomolecular Interactions” (International Journal of Molecular Sciences, 2020).

What was measured:
LasR [1] = molecular target: T1, LasR (Pseudomonas aeruginosa, UniProt P25084); experiment: microscale thermophoresis; format: binding
T1 construct: LasR-LBD

LasR [2] = molecular target: T1, LasR; experiment: microscale thermophoresis (no fluorescence signal in thermal shift assay); format: binding

T1 sequence (P25084 1-173): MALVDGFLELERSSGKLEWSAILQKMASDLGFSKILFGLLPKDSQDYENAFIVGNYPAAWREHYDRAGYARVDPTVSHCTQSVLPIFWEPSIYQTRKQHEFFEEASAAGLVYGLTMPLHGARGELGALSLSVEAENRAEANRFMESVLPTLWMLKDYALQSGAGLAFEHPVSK

SMILES	Kd (LasR [1])	Kd (LasR [2])
O=C1C=C(Br)/C(=C/Br)O1 [C30, (Z-)-4-Bromo-5-(bromomethylene)-2(5H)-furanone]	20.4 ± 16 µM	–
O=C(/C=C/c1ccc(O)c(O)c1)c1ccc(O)cc1O [B, Butein]	–	3.48 ± 1.63 µM
